Test results from the NIST ThermoML archive (doi:10.1016/j.jct.2016.03.036).
Several values for one entry are separate records, joined by “and”; a condition that tells them apart may be missing. Identical values can stand only once.

Assay: xn = mol fraction of the nth substance listed
Details: Gas, Spherical resonator

[Ar] [argon] + O=C=O
Details | speed of sound
274.99 K, 4022.9 kPa, x2 = 0.501 | 263.92 m/s and 263.91 m/s
274.99 K, 4023.2 kPa, x2 = 0.501 | 263.86 m/s
274.99 K, 6072.9 kPa, x2 = 0.501 | 257.99 m/s and 257.96 m/s
274.99 K, 6073.3 kPa, x2 = 0.501 | 258.01 m/s
275 K, 2006.3 kPa, x2 = 0.501 | 270.61 m/s and 270.59 m/s
275 K, 2006.4 kPa, x2 = 0.501 | 270.44 m/s
275 K, 8215.3 kPa, x2 = 0.501 | 254.18 m/s and 254.17 m/s
275 K, 8216.3 kPa, x2 = 0.501 | 253.76 m/s
276.09 K, 501.14 kPa, x2 = 0.7498 | 264.91 m/s
276.09 K, 1998.9 kPa, x2 = 0.7498 | 255.17 m/s and 255.16 m/s
276.09 K, 1999 kPa, x2 = 0.7498 | 255.07 m/s
276.09 K, 4003.2 kPa, x2 = 0.7498 | 240.29 m/s
276.09 K, 4003.3 kPa, x2 = 0.7498 | 240.28 m/s
276.09 K, 4003.6 kPa, x2 = 0.7498 | 240.29 m/s
276.09 K, 4995.2 kPa, x2 = 0.7498 | 231.83 m/s and 231.82 m/s
276.09 K, 4995.7 kPa, x2 = 0.7498 | 232.3 m/s
276.09 K, 5295.4 kPa, x2 = 0.7498 | 229.02 m/s and 229.01 m/s
276.09 K, 5296 kPa, x2 = 0.7498 | 229.56 m/s
276.09 K, 5399.3 kPa, x2 = 0.7498 | 228 m/s
276.09 K, 5399.8 kPa, x2 = 0.7498 | 228.57 m/s
276.09 K, 5502.4 kPa, x2 = 0.7498 | 226.98 m/s
276.09 K, 5503 kPa, x2 = 0.7498 | 227.57 m/s
290.01 K, 485.29 kPa, x2 = 0.7498 | 271.44 m/s
290.01 K, 1978.9 kPa, x2 = 0.7498 | 263.38 m/s and 263.41 m/s
290.01 K, 1979 kPa, x2 = 0.7498 | 263.3 m/s
290.01 K, 4023.1 kPa, x2 = 0.7498 | 251.71 m/s and 251.65 m/s
290.01 K, 4023.4 kPa, x2 = 0.7498 | 251.64 m/s
290.01 K, 6011.9 kPa, x2 = 0.7498 | 239.66 m/s
290.01 K, 6012.1 kPa, x2 = 0.7498 | 239.67 m/s
290.01 K, 6012.7 kPa, x2 = 0.7498 | 240.25 m/s
290.01 K, 8057 kPa, x2 = 0.7498 | 227.35 m/s
290.01 K, 8057.4 kPa, x2 = 0.7498 | 227.74 m/s
290.02 K, 8057.1 kPa, x2 = 0.7498 | 227.32 m/s
299.85 K, 8170.1 kPa, x2 = 0.501 | 275.03 m/s
299.85 K, 8170.2 kPa, x2 = 0.501 | 275.04 m/s
299.85 K, 8170.7 kPa, x2 = 0.501 | 275.13 m/s
299.94 K, 1986.8 kPa, x2 = 0.501 | 283.88 m/s and 283.89 m/s
299.94 K, 1987 kPa, x2 = 0.501 | 283.79 m/s
299.94 K, 4020.8 kPa, x2 = 0.501 | 279.77 m/s
299.95 K, 494.36 kPa, x2 = 0.501 | 287.27 m/s
299.95 K, 4020.5 kPa, x2 = 0.501 | 279.84 m/s and 279.82 m/s
299.95 K, 6007.5 kPa, x2 = 0.501 | 276.82 m/s
299.95 K, 6007.9 kPa, x2 = 0.501 | 276.82 m/s
299.95 K, 7657.9 kPa, x2 = 0.501 | 275.37 m/s
299.95 K, 7658 kPa, x2 = 0.501 | 275.38 m/s
299.96 K, 7658.9 kPa, x2 = 0.501 | 275.44 m/s
310 K, 5999.6 kPa, x2 = 0.7498 | 258 m/s
310.01 K, 488.28 kPa, x2 = 0.7498 | 280.3 m/s
310.01 K, 1980.9 kPa, x2 = 0.7498 | 274.11 m/s and 274.12 m/s
310.01 K, 1981 kPa, x2 = 0.7498 | 274.01 m/s
310.01 K, 4023.9 kPa, x2 = 0.7498 | 265.68 m/s and 265.67 m/s
310.01 K, 4024.2 kPa, x2 = 0.7498 | 265.61 m/s
310.01 K, 5999.7 kPa, x2 = 0.7498 | 257.99 m/s
310.01 K, 6000.2 kPa, x2 = 0.7498 | 258.01 m/s
310.01 K, 8062.5 kPa, x2 = 0.7498 | 251.41 m/s
310.01 K, 8062.7 kPa, x2 = 0.7498 | 251.51 m/s
310.01 K, 8063.3 kPa, x2 = 0.7498 | 251.52 m/s
350.01 K, 487.4 kPa, x2 = 0.501 | 308.87 m/s
350.01 K, 500.81 kPa, x2 = 0.7498 | 296.88 m/s
350.01 K, 1987.2 kPa, x2 = 0.7498 | 293.21 m/s
350.01 K, 1987.3 kPa, x2 = 0.7498 | 293.13 m/s
350.01 K, 1987.4 kPa, x2 = 0.7498 | 293.08 m/s
350.01 K, 1989.8 kPa, x2 = 0.501 | 307.6 m/s and 307.57 m/s
350.01 K, 1990 kPa, x2 = 0.501 | 307.46 m/s
350.01 K, 4001.2 kPa, x2 = 0.501 | 306.39 m/s and 306.37 m/s
350.01 K, 4001.5 kPa, x2 = 0.501 | 306.3 m/s
350.01 K, 4010.3 kPa, x2 = 0.7498 | 288.58 m/s and 288.52 m/s
350.01 K, 4010.6 kPa, x2 = 0.7498 | 288.5 m/s
350.01 K, 6002.2 kPa, x2 = 0.501 | 305.92 m/s and 305.92 m/s
350.01 K, 6002.6 kPa, x2 = 0.501 | 305.94 m/s
350.01 K, 6017.8 kPa, x2 = 0.7498 | 284.82 m/s and 284.81 m/s
350.01 K, 6018.2 kPa, x2 = 0.7498 | 284.8 m/s
350.01 K, 7290.6 kPa, x2 = 0.501 | 306.26 m/s and 306.02 m/s
350.01 K, 7291.2 kPa, x2 = 0.501 | 306.19 m/s
350.01 K, 8200.3 kPa, x2 = 0.7498 | 282.09 m/s and 282.08 m/s
350.01 K, 8201 kPa, x2 = 0.7498 | 282.12 m/s
400.13 K, 501.93 kPa, x2 = 0.7498 | 316.14 m/s
400.13 K, 1988.1 kPa, x2 = 0.7498 | 314.38 m/s and 314.32 m/s
400.13 K, 1988.3 kPa, x2 = 0.7498 | 314.31 m/s
400.13 K, 4018.3 kPa, x2 = 0.7498 | 312.3 m/s and 312.25 m/s
400.13 K, 4018.6 kPa, x2 = 0.7498 | 312.17 m/s
400.13 K, 6013.1 kPa, x2 = 0.7498 | 310.98 m/s and 310.94 m/s
400.13 K, 6013.5 kPa, x2 = 0.7498 | 310.89 m/s
400.13 K, 7954.4 kPa, x2 = 0.7498 | 310.44 m/s
400.13 K, 7954.5 kPa, x2 = 0.7498 | 310.43 m/s
400.13 K, 7955.1 kPa, x2 = 0.7498 | 310.44 m/s
400.19 K, 2000.8 kPa, x2 = 0.501 | 328.69 m/s and 328.63 m/s
400.19 K, 2000.9 kPa, x2 = 0.501 | 328.52 m/s
400.2 K, 451.92 kPa, x2 = 0.501 | 328.79 m/s
400.2 K, 4008.7 kPa, x2 = 0.501 | 328.95 m/s and 329.02 m/s
400.2 K, 4009 kPa, x2 = 0.501 | 328.85 m/s
400.2 K, 5980.4 kPa, x2 = 0.501 | 329.82 m/s and 329.89 m/s
400.2 K, 5980.8 kPa, x2 = 0.501 | 329.73 m/s
400.2 K, 7411 kPa, x2 = 0.501 | 330.82 m/s
400.2 K, 7411.2 kPa, x2 = 0.501 | 330.79 m/s
400.2 K, 7411.7 kPa, x2 = 0.501 | 330.75 m/s
500.46 K, 1988.3 kPa, x2 = 0.501 | 365.88 m/s and 365.86 m/s
500.46 K, 1988.4 kPa, x2 = 0.501 | 365.73 m/s
500.46 K, 4007.9 kPa, x2 = 0.501 | 367.67 m/s and 367.61 m/s
500.46 K, 4008.1 kPa, x2 = 0.501 | 367.56 m/s
500.46 K, 6008.3 kPa, x2 = 0.501 | 369.75 m/s and 369.73 m/s
500.46 K, 6008.7 kPa, x2 = 0.501 | 369.69 m/s
500.46 K, 7264.4 kPa, x2 = 0.501 | 371.24 m/s and 371.28 m/s
500.46 K, 7264.8 kPa, x2 = 0.501 | 371.19 m/s
500.48 K, 501.81 kPa, x2 = 0.7498 | 351 m/s
500.48 K, 2003.9 kPa, x2 = 0.7498 | 351.19 m/s and 351.23 m/s
500.48 K, 2004 kPa, x2 = 0.7498 | 351.03 m/s
500.48 K, 4010 kPa, x2 = 0.7498 | 351.64 m/s and 351.63 m/s
500.48 K, 4010.3 kPa, x2 = 0.7498 | 351.5 m/s
500.48 K, 6000.8 kPa, x2 = 0.7498 | 352.54 m/s and 352.49 m/s
500.48 K, 6001.2 kPa, x2 = 0.7498 | 352.39 m/s
500.49 K, 8007.4 kPa, x2 = 0.7498 | 353.87 m/s
500.49 K, 8007.5 kPa, x2 = 0.7498 | 353.82 m/s
500.49 K, 8008 kPa, x2 = 0.7498 | 353.78 m/s
500.5 K, 476.59 kPa, x2 = 0.501 | 364.75 m/s
